# Measured values published in PMC9490236, “Accurate de novo design of membrane-traversing macrocycles” (Cell, 2022).
# Where a SMILES comes first, the peptide text is derived from it. [ ]: non-standard residue; d: D form. NMeF = CN[C@@H](Cc1ccccc1)C(=O)O; dNMeF = CN[C@H](Cc1ccccc1)C(=O)O; NMeL = CN[C@@H](CC(C)C)C(=O)O; dNMeL = CN[C@H](CC(C)C)C(=O)O; dNMeV = CN[C@@H](C(=O)O)C(C)C; NMeA = CN[C@@H](C)C(=O)O; Nle = CCCC[C@H](N)C(=O)O; dNMeA = CN[C@H](C)C(=O)O; Sar = CNCC(=O)O
# Details: Caco-2
row,SMILES,permeability in transwell assays
1,"CC(C)C[C@@H]1NC(=O)[C@@H](CC(C)C)N(C)C(=O)[C@@H]2CCCN2C(=O)[C@H](CC(C)C)N(C)C(=O)[C@@H](C)NC(=O)[C@@H](CC(C)C)N(C)C(=O)[C@@H]2CCCN2C(=O)[C@@H](CC(C)C)N(C)C(=O)[C@H](CC(C)C)N(C)C(=O)[C@H](Cc2ccccc2)NC1=O [Design D10.21, *LEU *DLEU PRO *DLEU DALA *LEU PRO *DLEU LEU PHE] (cyclo(F[NMeL][dNMeL]P[dNMeL][dA][NMeL]P[dNMeL]L))",not permeable
2,"CC(C)C[C@@H]1NC(=O)[C@@H]2CCCN2C(=O)[C@H]2CCCN2C(=O)CN(C)C(=O)[C@@H](Cc2ccccc2)N(C)C(=O)[C@@H](CC(C)C)NC(=O)[C@@H](CC(C)C)N(C)C(=O)[C@@H]2CCCN2C(=O)[C@H](CC(C)C)N(C)C(=O)[C@H](CC(C)C)N(C)C1=O [Design D10.22, PRO LEU *LEU *LEU PRO *DLEU DLEU *DPHE *GLY DPRO] (cyclo(L[NMeL][NMeL]P[dNMeL][dL][dNMeF][Sar][dP]P))",not permeable
3,"CC(C)C[C@@H]1NC(=O)[C@@H]2CCCN2C(=O)[C@H]2CCCN2C(=O)[C@@H](CC(C)C)N(C)C(=O)[C@@H](Cc2ccccc2)N(C)C(=O)[C@@H](CC(C)C)NC(=O)[C@@H](CC(C)C)N(C)C(=O)[C@@H]2CCCN2C(=O)[C@H](CC(C)C)N(C)C(=O)[C@H](CC(C)C)N(C)C1=O [Design D10.23, PRO LEU *LEU *LEU PRO *DLEU DLEU *DPHE *DLEU DPRO] (cyclo(L[NMeL][NMeL]P[dNMeL][dL][dNMeF][dNMeL][dP]P))",not permeable

# Same assay, conditions: PAMPA
SMILES,PAMPA_Papp_Avg,PAMPA_R1,PAMPA_R3
"CCCC[C@@H]1NC(=O)[C@H](C(C)C)NC(=O)[C@H]2CCCN2C(=O)[C@@H]2CCCN2C(=O)[C@H](C)NC(=O)[C@@H](C)N(C)C(=O)[C@@H](CC(C)C)N(C)C(=O)[C@@H](C(C)C)NC(=O)[C@@H]2CCCN2C1=O [Design D9.21, ALA PRO DPRO VAL MET PRO DVAL *DLEU *DALA] (cyclo(AP[dP]V[Nle]P[dV][dNMeL][dNMeA]))",2.94E-07,2.78E-07,3.05E-07
"CCCC[C@@H]1NC(=O)[C@@H](C)N(C)C(=O)[C@@H]2CCCN2C(=O)[C@@H](CC(C)C)NC(=O)[C@H](CC(C)C)N(C)C(=O)[C@H]2CCCN2C(=O)[C@H](CC(C)C)NC(=O)[C@@H](CC(C)C)NC(=O)[C@@H](C)NC1=O [Design D9.28, DLEU LEU DPRO *LEU DLEU PRO *DALA MET DALA] (cyclo(L[dP][NMeL][dL]P[dNMeA][Nle][dA][dL]))",1.60E-06,1.84E-06,1.41E-06
"CCCC[C@@H]1NC(=O)[C@H]2CCCN2C(=O)[C@@H]2CCCN2C(=O)[C@@H](C)NC(=O)[C@H]2CCCN2C(=O)[C@@H](C(C)C)NC(=O)[C@H](C(C)C)NC(=O)[C@@H](Cc2ccccc2)N(C)C(=O)[C@H](C)N(C)C1=O [Design D9.31, PRO DPRO MET *ALA *DPHE VAL DVAL DPRO DALA] (cyclo([NMeA][dNMeF]V[dV][dP][dA]P[dP][Nle]))",6.86E-08,6.96E-08,5.29E-08
"CC(C)C[C@@H]1NC(=O)[C@H](C(C)C)NC(=O)[C@@H](C)NC(=O)[C@H](C)NC(=O)[C@@H]2CCCN2C(=O)[C@H]2CCCN2C(=O)[C@@H](C)NC(=O)[C@H]2CCCN2C(=O)[C@@H]2CCCN2C1=O [Design D9.34, PRO ALA DALA VAL LEU PRO DPRO DALA DPRO] (cyclo(A[dA]VLP[dP][dA][dP]P))",BQL,BQL,BQL
"CC(C)[C@H]1NC(=O)[C@H](C)NC(=O)[C@@H]2CCCN2C(=O)[C@H]2CCCN2C(=O)[C@@H](C(C)C)NC(=O)[C@H]2CCCN2C(=O)[C@@H](C)NC(=O)[C@@H](Cc2ccccc2)N(C)C(=O)[C@H](Cc2ccccc2)NC1=O [Design D9.35, DPRO DVAL DPRO PRO ALA DVAL PHE *DPHE DALA] (cyclo(A[dV]F[dNMeF][dA][dP][dV][dP]P))",BQL,BQL,BQL
"CC(C)[C@@H]1NC(=O)[C@H](C)NC(=O)[C@H]2CCCN2C(=O)[C@@H](Cc2ccccc2)NC(=O)[C@H]2CCCN2C(=O)[C@@H]2CCCN2C(=O)[C@H](Cc2ccccc2)NC(=O)[C@H](C)NC(=O)[C@H]2CCCN2C1=O [Design D9.36, VAL DPRO ALA PHE PRO DPRO DPHE DPRO ALA] (cyclo(AFP[dP][dF][dP]AV[dP]))",BQL,BQL,BQL
"CC[C@H](C)[C@@H]1NC(=O)[C@@H](CC(C)C)NC(=O)[C@H]2CCCN2C(=O)[C@@H]2CCCN2C(=O)[C@H](C)NC(=O)[C@H]2CCCN2C(=O)[C@@H]2CCCN2C(=O)[C@H](C)NC(=O)[C@@H](C(C)C)N(C)C1=O [Design D9.37, DPRO DLEU ILE *DVAL ALA PRO DPRO ALA PRO] (cyclo(AP[dP]AP[dP][dL]I[dNMeV]))",BQL,BQL,BQL
"CC[C@@H](C)[C@H]1NC(=O)[C@H](CC(C)C)NC(=O)[C@@H](CC(C)C)NC(=O)[C@H](C(C)C)NC(=O)[C@@H]2CCCN2C(=O)[C@H](CC(C)C)N(C)C(=O)[C@@H](CC(C)C)NC(=O)[C@H](Cc2ccccc2)N(C)C(=O)[C@H]2CCCN2C1=O [Design D9.38, DPRO *PHE DLEU *LEU PRO VAL DLEU LEU DILE] (cyclo(L[dI][dP][NMeF][dL][NMeL]PV[dL]))",BQL,BQL,BQL
"CCCC[C@@H]1NC(=O)[C@H]2CCCN2C(=O)[C@H](C(C)C)NC(=O)[C@@H](CC(C)C)N(C)C(=O)[C@H](Cc2ccccc2)NC(=O)[C@H](CC(C)C)NC(=O)[C@@H](CC(C)C)N(C)C(=O)[C@@H]2CCCN2C(=O)[C@@H](CC(C)C)NC1=O [Design D9.40, DPRO MET DLEU PRO *DLEU LEU PHE *DLEU VAL] (cyclo(F[dNMeL]V[dP][Nle][dL]P[dNMeL]L))",2.38E-07,4.18E-07,1.63E-07
"CC(C)C[C@@H]1NC(=O)[C@H](C)NC(=O)[C@H](C)NC(=O)[C@H]2CCCN2C(=O)[C@H](Cc2ccccc2)N(C)C(=O)[C@H]2CCCN2C(=O)[C@H](CC(C)C)N(C)C(=O)[C@@H](CC(C)C)N(C)C(=O)[C@H](Cc2ccccc2)NC(=O)[C@@H](CC(C)C)NC1=O [Design D10.8, PHE *DLEU *LEU DPRO *PHE DPRO ALA ALA LEU DLEU] (cyclo(AAL[dL]F[dNMeL][NMeL][dP][NMeF][dP]))",BQL,BQL,BQL
"CC[C@H](C)[C@@H]1NC(=O)[C@H](C(C)C)NC(=O)[C@@H](CC(C)C)N(C)C(=O)[C@H](Cc2ccccc2)N(C)C(=O)[C@H]2CCCN2C(=O)[C@H](C(C)C)NC(=O)[C@@H](C)NC(=O)[C@H](CC(C)C)N(C)C(=O)[C@H]2CCCN2C(=O)[C@@H](Cc2ccccc2)NC1=O [Design D10.9, DPRO *LEU DALA VAL DPRO *PHE *DLEU VAL ILE DPHE] (cyclo(I[dF][dP][NMeL][dA]V[dP][NMeF][dNMeL]V))",BQL,BQL,BQL
"CC[C@@H](C)[C@H]1NC(=O)[C@H](CC(C)C)NC(=O)[C@H](CC(C)C)N(C)C(=O)[C@H]2CCCN2C(=O)[C@@H](CC(C)C)NC(=O)[C@@H]2CCCN2C(=O)[C@H](CC(C)C)N(C)C(=O)[C@@H](Cc2ccccc2)N(C)C(=O)[C@H](CC(C)C)N(C)C(=O)[C@H](CC(C)C)N(C)C1=O [Design D10.12, *LEU LEU DILE *LEU *LEU *DPHE *LEU PRO DLEU DPRO] (cyclo(L[dI][NMeL][NMeL][dNMeF][NMeL]P[dL][dP][NMeL]))",BQL,BQL,BQL
"CC(C)C[C@@H]1NC(=O)[C@H](CC(C)C)N(C)C(=O)[C@@H](Cc2ccccc2)N(C)C(=O)[C@H](Cc2ccccc2)NC(=O)[C@@H]2CCCN2C(=O)[C@@H](C)NC(=O)[C@@H]2CCCN2C(=O)[C@H](CC(C)C)N(C)C(=O)[C@H](CC(C)C)N(C)C(=O)[C@@H](C(C)C)NC1=O [Design D10.13, *LEU LEU DVAL *LEU *LEU PRO DALA PRO PHE *DPHE] (cyclo(F[dNMeF][NMeL]L[dV][NMeL][NMeL]P[dA]P))",BQL,BQL,BQL
"CC(C)C[C@@H]1C(=O)N[C@H](CC(C)C)C(=O)N(C)[C@H](Cc2ccccc2)C(=O)N(C)[C@@H](CC(C)C)C(=O)N(C)[C@H](C)C(=O)N2CCC[C@H]2C(=O)N(C)[C@H](Cc2ccccc2)C(=O)N[C@@H](C(C)C)C(=O)N[C@H](CC(C)C)C(=O)N2CCC[C@H]2C(=O)N1C [Design D10.14, *DPHE VAL DLEU PRO *DLEU DLEU *DPHE *LEU *DALA PRO] (cyclo([NMeL][dNMeA]P[dNMeF]V[dL]P[dNMeL][dL][dNMeF]))",BQL,BQL,BQL
"CC(C)C[C@@H]1NC(=O)[C@@H](CC(C)C)N(C)C(=O)[C@@H]2CCCN2C(=O)[C@H](CC(C)C)N(C)C(=O)[C@@H](C)NC(=O)[C@@H](CC(C)C)N(C)C(=O)[C@@H]2CCCN2C(=O)[C@@H](CC(C)C)N(C)C(=O)[C@H](CC(C)C)N(C)C(=O)[C@H](Cc2ccccc2)NC1=O [Design D10.21, *LEU *DLEU PRO *DLEU DALA *LEU PRO *DLEU LEU PHE] (cyclo(F[NMeL][dNMeL]P[dNMeL][dA][NMeL]P[dNMeL]L))",BQL,BQL,BQL
"CC(C)C[C@@H]1NC(=O)[C@@H]2CCCN2C(=O)[C@H]2CCCN2C(=O)CN(C)C(=O)[C@@H](Cc2ccccc2)N(C)C(=O)[C@@H](CC(C)C)NC(=O)[C@@H](CC(C)C)N(C)C(=O)[C@@H]2CCCN2C(=O)[C@H](CC(C)C)N(C)C(=O)[C@H](CC(C)C)N(C)C1=O [Design D10.22, PRO LEU *LEU *LEU PRO *DLEU DLEU *DPHE *GLY DPRO] (cyclo(L[NMeL][NMeL]P[dNMeL][dL][dNMeF][Sar][dP]P))",BQL,BQL,BQL
"CC(C)C[C@@H]1NC(=O)[C@@H]2CCCN2C(=O)[C@H]2CCCN2C(=O)[C@@H](CC(C)C)N(C)C(=O)[C@@H](Cc2ccccc2)N(C)C(=O)[C@@H](CC(C)C)NC(=O)[C@@H](CC(C)C)N(C)C(=O)[C@@H]2CCCN2C(=O)[C@H](CC(C)C)N(C)C(=O)[C@H](CC(C)C)N(C)C1=O [Design D10.23, PRO LEU *LEU *LEU PRO *DLEU DLEU *DPHE *DLEU DPRO] (cyclo(L[NMeL][NMeL]P[dNMeL][dL][dNMeF][dNMeL][dP]P))",BQL,BQL,BQL
"CC(C)C[C@@H]1NC(=O)[C@@H]2CCCN2C(=O)[C@@H](Cc2ccccc2)N(C)C(=O)[C@H](CC(C)C)N(C)C(=O)[C@H](CC(C)C)N(C)C(=O)[C@@H](CC(C)C)N(C)C(=O)[C@H](C)NC(=O)[C@H](C(C)C)NC(=O)CNC(=O)[C@H](Cc2ccccc2)NC1=O [Design D10.24, PHE GLY VAL ALA *DLEU *LEU *LEU *DPHE PRO LEU] (cyclo(A[dNMeL][NMeL][NMeL][dNMeF]PLFGV))",BQL,BQL,BQL
